{"source": "patent US11242374B2", "about": "“Minimally-invasive and activity-dependent control of excitable cells” (Brown University, priority 2015, dated 2022)", "key": {"[1]": {"tested_on": "TRN neurons expressing eGLuc-VChR1", "test": "in vitro slice recordings of TRN neurons transduced with AAV2/9-hSyn-eGLuc-VChR1, CTZ superfusion", "format": "cell-based, mice", "protocol": "(§1) Mice were injected with AAV2/9-hSyn-eGLuc-VChR1 into the thalamus of mice, and in vitro slice experiments were performed 7-12 days later. […] VPm expression was negligible except from TRN axons. Expressing TRN neurons were electrophysiologically normal, and strongly responsive to LED light pulses (FIGS. 5B and 5C). The short latencies and other properties of these responses indicate robust VChR1 expression. Superfusion of the luciferin CTZ (100 μM) caused ca. 1-3 mV reversible depolarization (FIGS. 5D and 5E; N=3 cells, 2 mice). […] At 20 days post viral injection, a 16-contact laminar electrode was used to record from the TRN and neighboring relay nuclei under light isoflurane anesthesia (0.5%). […] Spike shape also indicated relay neuron and not TRN identity. […] These combined effects are consistent with TRN-driven hyperpolarization of this neuron and a shift to burst mode."}, "[2]": {"tested_on": "TRN and neighboring relay nuclei (eGLuc-VChR1)", "test": "in vivo laminar electrode recording from TRN and neighboring relay nuclei after IV CTZ", "parameters": "species or system mice", "conditions": "ca. 150 μg CTZ IV (tail vein)", "protocol": "as §1"}, "[3]": {"tested_on": "neocortical neurons expressing eGLuc-VChR1", "test": "action potential firing in cultured neocortical neurons expressing eGLuc-VChR1", "format": "cell-based", "conditions": "cell expressing fusion protein containing eGLuc-VChR1 (depolarization)", "text": "(§2) The neurons were modified to express fusion proteins including a luminescent protein (enhanced Gaussia luciferase (eGLuc)) and either VChR1 or Mac. Successful expression of the full construct in the neocortical neurons was confirmed by observation of the fluorescence of the reporter protein (upper middle panel titled Fluorescence in FIG. 3). Ability of eGLuc to luminesce was unaffected by the inclusion of light-gated ion channel (VChR1 or Mac), as shown in the upper right panel titled Luminescence in FIG. 3)."}, "[4]": {"tested_on": "neocortical neurons expressing eGLuc-Mac", "test": "action potential firing in cultured neocortical neurons expressing eGLuc-Mac", "format": "cell-based", "conditions": "cell expressing fusion protein containing eGLuc-Mac (hyperpolarization)", "text": "as §2"}, "[5]": {"tested_on": "rat cortical neurons expressing LMO3", "test": "multi electrode array (MEA) recording and luminescence of cortical neurons expressing LMO3 (sbGLuc-VChR1)", "format": "cell-based", "text": "FIGS. 12A-12D show multi electrode arrays used in the in vitro experiments on rat cortical neurons. FIG. 12A is a schematic of the multi electrode array. FIGS. 12B and 12C are images of the electrode array. FIG. 12D is a fluorescent image of MEA culture of rat cortical neurons transduced with AAV-hSyn-LMO3, where LMO3 is a fusion of sbGLuc and VChR1. Neurons are visible in fluorescent green, because of the expression of LMO3, which includes EYFP.\nFIG. 13 is a series of graphs showing the luminescence and neuronal activity of rat cortical neurons in response to contacting with coelenterazine (CTZ) or with the vehicle.\nExcitable cells (rat cortical neurons) expressing a light-gated ion channel (VChR1) fused to a luminescent protein (Gaussia luciferase) were cultured on multi electrode arrays (MEA), as shown in FIGS. 12A-12D. The results are shown in FIG. 13 Under continuous recording MEA dishes were injected (see arrows) with CTZ or with vehicle. Upon injection a pronounced artifact was observed (see FIG. 13). […] In contrast, vehicle injection causes the artifact, but neuronal spiking pattern is not altered. […] Neurons in the culture express LMO3 (luminopsins 3, a fusion of sbGLuc and VChR1). Upon application of substrate (CTZ), but not of vehicle, the luciferase emits light which activates the channelrhodopsin, resulting in changed spiking activity (see before and after CTZ). […]"}, "[6]": {"tested_on": "neocortical neurons transfected with Gaussia luciferase", "test": "IVIS imaging of mouse brain expressing Gaussia luciferase after intravenous coelenterazine", "format": "in vivo", "conditions": "intravenous injection several weeks after transfection; right hemisphere", "protocol": "FIG. 2 is a photograph showing an example in which neocortical neurons in the right hemisphere were transfected with a Gaussia luciferase.\nSeveral weeks later, coelenterazine was administered intravenously to the mouse, and an image of the mouse's head was taken with IVIS® imaging system (FIG. 2)."}}, "data": [{"compound": "Oc1ccc(Cc2nc3c(Cc4ccccc4)nc(-c4ccc(O)cc4)cn3c2O)cc1", "note": "[CTZ, coelenterazine]", "values": [{"measurement": "onset of stimulus-evoked spike bursts", "setting": "[1]; CTZ-evoked depolarization vs control", "value": "delaying onset of stimulus-evoked spike bursts"}, {"measurement": "reversible depolarization", "setting": "[1]; superfusion of CTZ 100 μM, N=3 cells, 2 mice", "value": "1-3 mV"}, {"measurement": "burst rate in Cell 2 (events with 100 msec prior inactivity and >95 Hz spike rate)", "setting": "[2]", "value": "increase in burst rate"}, {"measurement": "firing rate in other cells (Cell 2, relay neuron)", "setting": "[2]", "value": "decreases in firing rate"}, {"measurement": "firing in multi-unit activity and well-isolated single neurons (Cell 1)", "setting": "[2]; putative TRN, 20 days post viral injection, isoflurane 0.5%", "value": "firing increased"}, {"measurement": "spontaneous action potential firing", "setting": "[3]", "value": "increase in spontaneous action potential firing"}, {"measurement": "spontaneous action potential firing", "setting": "[4]", "value": "suppression of spontaneous action potential firing"}, {"measurement": "neuronal spiking pattern on MEA", "setting": "[5]; CTZ injected into MEA dishes, vehicle does not alter pattern", "value": "desynchronized spiking"}, {"measurement": "luminescence of neurons", "setting": "[5]; contacting with CTZ vs vehicle", "value": "results in luminescence"}, {"measurement": "bioluminescence emission through the scalp", "setting": "[6]", "value": "emitted brightly"}]}]}
